Experimental data reported in paper PMC8903829 (eLife, 2022).
pEC50: −log10 of the molar value. Where two headings read alike, the source gives them in different places.

Experiments:
Scn8a^N1768D/+ mice = test: Modified 6 Hz psychomotor seizure assay; assay type: in vivo, mouse
Protocol: (§1) Phenytoin was formulated in physiologic saline and was administered intraperitoneally (i.p.) using a 25-gauge needle at a dose volume of 10 mL/kg. All compounds were administered 2 hr prior to electrical seizure induction for all seizure models employed in this study.
Scn8a^N1768D/+heterozygous mice were tested at 5 weeks of age (p35). The modified 6 Hz seizure assay in Scn8a^N1768D/+heterozygous mice was adapted from the traditional 6 Hz assay psychomotor seizure assay to provide a measure of in vivo on target (NaV1.6 mediated) efficacy ([Barton et al., 2001]). The modified assay used a low frequency (6 Hz) but long-duration stimulation (3 s) to induce seizures. […] An electroshock (6 Hz, 12 mA) was delivered for 3 s (at 0.3-ms pulse interval) by corneal electrodes (Electro Convulsive Therapy Unit 57,800 from Ugo Basile). Immediately prior to the electroshock, the animals’ eyes were anesthetized with a drop of Alcaine (0.5% proparacaine hydrochloride).
An animal was considered protected in the assay upon prevention of GTC with hindlimb extension and was then scored ‘0’. An animal displaying GTC with hindlimb extension was considered not protected and is then scored ‘1’. The experimenter scoring the seizure behavior was blinded to the treatment.

[1] = tested on: wild-type Sprague Dawley rats; test: DC-Maximal electroshock seizure assay (DC-MES); assay type: in vivo, rat
Protocol: as §1
(§2) The maximal electroshock seizure (MES) assay has been extensively used in the search for anticonvulsant substances ([Löscher et al., 1991]; [Piredda et al., 1985]; [White et al., 1995]). The MES assay is sensitive to nonselective NaV inhibitors. It is considered a model for generalized tonic-clonic (GTC) seizures and provides an assessment of seizure spread. Briefly, an electroshock of direct current (DC) was delivered by corneal electrodes (Electro Convulsive Therapy Unit 57,800 from Ugo Basile). The parameters of stimulation were different between mice and rats. In CF1 mice aged 9–12 weeks, a direct current of 50 mA (60 Hz) was delivered for 0.2 s (pulse width of 0.5ms), whereas in Sprague Dawley (SD) rats aged 5–6 weeks, a direct current of 150 mA (60 Hz) was delivered for 0.3 s (pulse width of 0.5ms). Immediately prior to the electroshock, the animals’ eyes were anesthetized with a drop of Alcaine (0.5% proparacaine hydrochloride).
(§3) An animal was considered protected in the assay in the absence of a GTC with hindlimb extension and is then scored ‘0’. An animal displaying GTC with hindlimb extension was considered not protected and is then scored ‘1’. The experimenter scoring the seizure behavior was blinded to the treatment.

[2] = Bioanalytical assessment of plasma and brain concentrations after 6 Hz assay; assay type: in vivo, mouse
Protocol: (§4) Approximately 0.5 mL of blood was collected from each mouse at the end of the assay via cardiac puncture under deep anesthesia. The blood samples were collected in a syringe and transferred to tubes containing EDTA. Blood was stored at 4 °C until centrifuged within 30 min of collection. Plasma was harvested and placed on dry ice and stored in a freezer set to maintain a temperature of –70°C to –80°C until analysis. Brains were harvested immediately after blood collection and placed on dry ice prior to storage in a freezer set to maintain a temperature of –70°C to –80°C until analysis.
(§5) Extraction of plasma samples was carried out by protein precipitation using acetonitrile. Plasma samples (50 µL) were mixed with 50 µL of internal standard (IS) solution in water followed by addition of 10 µL of concentrated ortho-phosphoric acid and 200 µL of acetonitrile. Samples were vortexed for 30 seconds, centrifuged at 13,000 rpm for 20 min, decanted in to a 96-well plate, and further centrifuged at 4000 rpm for 20 min. The samples were analyzed by UHPLC-ESI-MS/MS as described below.
(§6) Prior to extraction, pre-weighed whole brains were homogenized in 1:1 acetonitrile/water (v/v) (4 mL per mouse brain) using an IKA T18 ULTRA-TURRAX Homogenizer at the setting of 4 for approximately 2 min. The homogenate was centrifuged at 13,000 rpm for 20 min and 50 µL of the supernatant were treated exactly as described above for plasma samples. […]
(§7) Samples were analyzed by UHPLC-ESI MS/MS using a TQ-5500 Sciex triple quadrupole mass spectrometer equipped with a Shimadzu Nexera UHPLC pump and auto-sampler system using an ACE C18 PFP, 2.50 × 50 mm, 1.7 µm particle size column and gradient elution consisting of solvent A (0.1% formic acid in water) and solvent B (0.1% formic acid in acetonitrile) starting at 20% B from 0 min to 0.4 min and then increased to 100% B from 0.4 min to 0.6 min. At 2.0 min, the mobile phase composition was switched back to […] for 1 min. The flow rate used throughout the experiment was […]. […] The UHPLC-ESI MS/MS system was controlled by Analyst 1.6.
(§8) Sample concentrations were determined using a linear calibration function, weighted 1 /X, generated by the regression of analyte to IS peak area ratios in the standard samples to their respective concentrations. Acceptance criteria for the analytical run required that the back calculated values of the standards and the QC samples fell within ±20% of their nominal values, except for the lowest standard or lower limit of quantitation (LLOQ), for which the acceptance criterion was ±25%. At least 6 out of 12 standard points had to show back-calculated values within ±20% of their nominal concentrations for the calibration to be accepted. At least three QC samples, one at each level, had to show back-calculated values within ±20% of their nominal concentrations for the whole sample batch to be valid.

[3] = Bioanalytical assessment of plasma and brain concentrations after rat DC-MES assay; assay type: in vivo; conditions: Study18085, 2 mg/kg, Rat DC-MES
wild-type mice (CF-1) = test: DC-Maximal electroshock seizure assay (DC-MES); assay type: in vivo, mouse
Protocol: as §1, §2, §3

Sprague Dawley rats = test: Observation of potential adverse behavior (behavioral signs) in the rat DC-MES studies; assay type: in vivo; conditions: Sprague Dawley, rat, in vivo, 2 hr
Protocol: Animals were observed by the scientist(s) responsible for dosing for the first 30 min after dosing for and again at the time of assay (2 hr post dose) for signs of abnormal behavior.

[4] = Bioanalytical assessment of plasma and brain concentrations after mouse DC-MES assay; assay type: in vivo; conditions: mouse, intraperitoneal, WT mouse DC-MES acute
Protocol: as §4, §5, §6, §7, §8

[5] = Study16042, 1 mg/kg, SCN8A mouse 6HZ
[6] = Study16042, 3 mg/kg, SCN8A mouse 6HZ
[7] = Study16042, 10 mg/kg, SCN8A mouse 6HZ
[8] = Study16042, 30 mg/kg, SCN8A mouse 6HZ
[9] = Study16042, 56 mg/kg, SCN8A mouse 6HZ
[10] = Study16189, 10 mg/kg, SCN8A mouse 6HZ
[11] = Study16189, 30 mg/kg, SCN8A mouse 6HZ
[12] = Study16202, 1 mg/kg, P75, SCN8A mouse 6HZ
[13] = Study16202, 3 mg/kg, P75, SCN8A mouse 6HZ

O=C1NC(=O)C(c2ccccc2)(c2ccccc2)N1 [PHT]
SCN8A mouse 6HZ Fraction of animals seizing (Scn8a^N1768D/+ mice; Study16042, 1 mg/kg): 1 | SCN8A mouse 6HZ Fraction of animals seizing (Scn8a^N1768D/+ mice; Study16042, 3 mg/kg): 0.75 | SCN8A mouse 6HZ Fraction of animals seizing (Scn8a^N1768D/+ mice; Study16042, 10 mg/kg): 0.25 | SCN8A mouse 6HZ Fraction of animals seizing (Scn8a^N1768D/+ mice; Study16042, 30 mg/kg): 0 | SCN8A mouse 6HZ Fraction of animals seizing (Scn8a^N1768D/+ mice; Study16042, 56 mg/kg): 0 | SCN8A mouse 6HZ Fraction of animals seizing (Scn8a^N1768D/+ mice; Study16189, 10 mg/kg): 0.15 | SCN8A mouse 6HZ Fraction of animals seizing (Scn8a^N1768D/+ mice; Study16189, 30 mg/kg): 0 | SCN8A mouse 6HZ Fraction of animals seizing (Scn8a^N1768D/+ mice; Study16202, 1 mg/kg, P75): 1 | SCN8A mouse 6HZ Fraction of animals seizing (Scn8a^N1768D/+ mice; Study16202, 3 mg/kg, P75): 0.858 | Rat DC-MES Fraction of animals seizing ([1]; Study18085, 2 mg/kg): 0.667 | Mean [Brain] [2, 5]: 2.665 µM | Mean [Palsma] [2, 5]: 1.798 µM | Mean [Brain] [2, 6]: 11.7685 µM | Mean [Palsma] [2, 6]: 7.584 µM | Mean [Brain] [2, 7]: 38.4981 µM | Mean [Palsma] [2, 7]: 32.6675 µM | Mean [Brain] [2, 8]: 120.646 µM | Mean [Palsma] [2, 8]: 92.6612 µM | Mean [Brain] [2, 9]: 109.171 µM | Mean [Palsma] [2, 9]: 127.343 µM | Mean [Brain] [2, 10]: 29.4623 µM | Mean [Palsma] [2, 10]: 26.0411 µM | Mean [Brain] [2, 11]: 76.4798 µM | Mean [Palsma] [2, 11]: 59.0466 µM | Mean [Brain] [2, 12]: 2.628 µM | Mean [Palsma] [2, 12]: 2.477 µM | Mean [Brain] [2, 13]: 7.154 µM | Mean [Palsma] [2, 13]: 7.163 µM | Mean [Brain] [3]: 1.841 µM | Mean [Palsma] [3]: 3.4567 µM

O=C1NC(=O)C(c2ccccc2)(c2ccccc2)N1 [phenytoin, Phenytoin]
pEC50 (Scn8a^N1768D/+ mice; Mus musculus, Scn8a^N1768D/+ 6 Hz model, 2 hr post dose (oral; phenytoin i.p.), read-out: brain EC50): 4.74 | WT mouse DC-MES acute Fraction of animals seizing (wild-type mice (CF-1); Study16130, 5 mg/kg): 0.5714 | WT mouse DC-MES acute Fraction of animals seizing (wild-type mice (CF-1); Study16130, 10 mg/kg): 0 | WT mouse DC-MES acute Fraction of animals seizing (wild-type mice (CF-1); Study17131, 2 mg/kg): 0.6667 | WT mouse DC-MES acute Fraction of animals seizing (wild-type mice (CF-1); Study17136, 2 mg/kg): 0.7143 | WT mouse DC-MES acute Fraction of animals seizing (wild-type mice (CF-1); Study17136, 5 mg/kg): 0.625 | pEC50 (wild-type mice (CF-1); WT mouse DC-MES, 2 hr post dose (oral; phenytoin i.p.), read-out: brain EC50): 4.89 | pEC50 ([1]; WT rat DC-MES (oral; phenytoin i.p.), read-out: plasma EC50): 5.35 | pEC50 ([1]; WT rat DC-MES, 2 hr post dose (oral; phenytoin i.p.), read-out: brain EC50): 5.59 | minimal plasma concentration provoking behavioral signs (BSC) (Sprague Dawley rats): 11 µM | concentration at 2 h ([4]; brain, 2 mg/kg, Study17131, 2 mg/kg, read-out: Mean [Brain]): 6.12 µM | concentration at 2 h ([4]; brain, 2 mg/kg, Study17136, 2 mg/kg, read-out: Mean [Brain]): 3.6 µM | concentration at 2 h ([4]; brain, 5 mg/kg, Study16130, 5 mg/kg, read-out: Mean [Brain]): 17.9 µM | concentration at 2 h ([4]; brain, 5 mg/kg, Study17136, 5 mg/kg, read-out: Mean [Brain]): 10.9 µM | concentration at 2 h ([4]; brain, 10 mg/kg, Study16130, 10 mg/kg, read-out: Mean [Brain]): 38.3 µM | concentration at 2 h ([4]; plasma, 2 mg/kg, Study17131, 2 mg/kg, read-out: Mean [Palsma]): 3.42 µM | concentration at 2 h ([4]; plasma, 2 mg/kg, Study17136, 2 mg/kg, read-out: Mean [Palsma]): 3.65 µM | concentration at 2 h ([4]; plasma, 5 mg/kg, Study16130, 5 mg/kg, read-out: Mean [Palsma]): 16.1 µM | concentration at 2 h ([4]; plasma, 5 mg/kg, Study17136, 5 mg/kg, read-out: Mean [Palsma]): 11.5 µM | concentration at 2 h ([4]; plasma, 10 mg/kg, Study16130, 10 mg/kg, read-out: Mean [Palsma]): 30.7 µM
